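Step 1: Grow cells in 96-well plates. Step 2: Expose to compound for 48 hours at 5 concentrations. Step 3: Interpolate endpoints linearly; if unreached, use highest concentration. TGI: total growth inhibition.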
How the values were obtained:
Test in all cases: NCI anticancer screen, dose series, 48 h
[1] = tested on: DLD-1 colon
[2] = tested on: SK-MEL-28 melanoma
[3] = tested on: NCI-H460 lung
[4] = tested on: CAKI-1 renal
[5] = tested on: DMS 114 small cell lung
[6] = tested on: SR leukemia
[7] = tested on: HCC-2998 colon
[8] = tested on: OVCAR-3 ovarian
[9] = tested on: DMS 273 small cell lung
[10] = tested on: OVCAR-8 ovarian
[11] = tested on: HL-60(TB) leukemia
[12] = tested on: SNB-75 CNS
[13] = tested on: SW-620 colon
[14] = tested on: 786-0 renal
[15] = tested on: KM20L2 colon
[16] = tested on: UACC-62 melanoma
[17] = tested on: HCT-116 colon
[18] = tested on: M14 melanoma
[19] = tested on: COLO 205 colon
[20] = tested on: NCI-H522 lung
[21] = tested on: SF-295 CNS
[22] = tested on: UACC-257 melanoma
[23] = tested on: NCI-H23 lung
[24] = tested on: MOLT-4 leukemia
[25] = tested on: OVCAR-4 ovarian
[26] = tested on: ACHN renal
[27] = tested on: HOP-92 NSCLC
[28] = tested on: SNB-19 CNS
[29] = tested on: SF-268 CNS
[30] = tested on: SK-MEL-2 melanoma
[31] = tested on: M19-MEL melanoma
[32] = tested on: UO-31 renal
[33] = tested on: HT29 colon
[34] = tested on: NCI-H226 lung
[35] = tested on: A549 NSCLC
[36] = tested on: HOP-62 NSCLC
[37] = tested on: TK-10 renal
[38] = tested on: RPMI-8226 leukemia
[39] = tested on: CCRF-CEM leukemia
[40] = tested on: IGROV1 ovarian
[41] = tested on: K-562 leukemia
[42] = tested on: HCT-15 colon
[43] = tested on: SK-MEL-5 melanoma
[44] = tested on: OVCAR-5 ovarian
[45] = tested on: KM12 colon
[46] = tested on: U251 CNS
[47] = tested on: SF-539 CNS
[48] = tested on: MALME-3M melanoma
[49] = tested on: SN12C renal
[50] = tested on: HOP-18 NSCLC
[51] = tested on: SK-OV-3 ovarian
[52] = tested on: A498 renal
[53] = tested on: XF 498 CNS
[54] = tested on: LXFL 529 NSCLC
[55] = tested on: LOX IMVI melanoma
[56] = tested on: RXF 393 renal
[57] = tested on: SNB-78 CNS
[58] = tested on: BT-549 breast
[59] = tested on: HS 578T breast
[60] = tested on: MDA-MB-435
[61] = tested on: MCF7 breast
[62] = tested on: DU-145 prostate
[63] = tested on: EKVX NSCLC
[64] = tested on: MDA-N
[65] = tested on: MDA-MB-231 breast
[66] = tested on: NCI/ADR-RES ovarian
[67] = tested on: T-47D breast
[68] = tested on: PC-3 prostate

Work on COC(=O)n1c(CBr)c(Br)c2ccccc21 yielded a TGI [1] of over 100 µM, a TGI [2] of over 100 µM and a TGI [3] of 74.9 µM. The TGI [4] was 49.9 µM, the TGI [5] was over 100 µM and the TGI [6] was 80.6 µM. For the same molecule, the TGI [7] was over 100 µM, the TGI [8] was 50.9 µM and the TGI [9] was over 100 µM. For the same molecule, the TGI [10] was over 100 µM, the TGI [11] was 59.8 µM and the TGI [12] was 47.1 µM. It also gave a TGI [13] of over 100 µM, a TGI [14] of over 100 µM and a TGI [15] of over 100 µM. It also gave a TGI [16] of 86.4 µM, a TGI [17] of over 100 µM and a TGI [18] of over 100 µM. For the same molecule, the TGI [19] was over 100 µM, the TGI [20] was 34.5 µM and the TGI [21] was 69.9 µM. The TGI [22] was over 100 µM, the TGI [23] was 71 µM and the TGI [24] was 76.3 µM. For the same molecule, the TGI [25] was 66.2 µM, the TGI [26] was 47.9 µM and the TGI [27] was 68 µM. The TGI [28] was over 100 µM, the TGI [29] was 75.8 µM and the TGI [30] was 47 µM. For the same molecule, the TGI [31] was over 100 µM, the TGI [32] was 71.1 µM and the TGI [33] was over 100 µM. The TGI [34] was 33.6 µM, the TGI [35] was over 100 µM and the TGI [36] was 54 µM. The TGI [37] was 94 µM, the TGI [38] was 58.7 µM and the TGI [39] was 70.2 µM. It also gave a TGI [40] of 93.1 µM, a TGI [41] of over 100 µM and a TGI [42] of over 100 µM. It also gave a TGI [43] of over 100 µM, a TGI [44] of 79.2 µM and a TGI [45] of over 100 µM. The TGI [46] was 82.4 µM, the TGI [47] was over 100 µM and the TGI [48] was over 100 µM.

COC(=O)c1cccc(C(=O)OC)c1 showed a TGI [49] of over 100 µM, a TGI [1] of over 100 µM and a TGI [2] of over 100 µM. For the same molecule, the TGI [3] was over 100 µM, the TGI [4] was over 100 µM and the TGI [6] was over 100 µM. For the same molecule, the TGI [7] was over 100 µM, the TGI [9] was over 100 µM and the TGI [11] was over 100 µM. The TGI [12] was over 100 µM, the TGI [13] was over 100 µM and the TGI [50] was over 100 µM. It also gave a TGI [17] of over 100 µM, a TGI [18] of over 100 µM and a TGI [19] of over 100 µM. The TGI [20] was over 100 µM, the TGI [21] was over 100 µM and the TGI [22] was over 100 µM. It also gave a TGI [23] of over 100 µM, a TGI [51] of over 100 µM and a TGI [24] of over 100 µM. For the same molecule, the TGI [25] was over 100 µM, the TGI [26] was over 100 µM and the TGI [27] was over 100 µM. It also gave a TGI [28] of over 100 µM, a TGI [52] of over 100 µM and a TGI [29] of over 100 µM. For the same molecule, the TGI [30] was over 100 µM, the TGI [33] was over 100 µM and the TGI [34] was over 100 µM. The TGI [53] was over 100 µM, the TGI [35] was over 100 µM and the TGI [36] was over 100 µM. It also gave a TGI [54] of over 100 µM, a TGI [55] of over 100 µM and a TGI [37] of over 100 µM. For the same molecule, the TGI [38] was over 100 µM, the TGI [39] was over 100 µM and the TGI [56] was over 100 µM. For the same molecule, the TGI [42] was over 100 µM, the TGI [57] was over 100 µM and the TGI [44] was over 100 µM. For the same molecule, the TGI [45] was over 100 µM, the TGI [46] was over 100 µM and the TGI [48] was over 100 µM.

CC(=N\N=C\c1ccccn1)/C(C)=N/N=C(C)/C(C)=N/N=C(C)/C(C)=N/N=C/c1ccccn1 gave a TGI [58] of over 100 µM, a TGI [49] of over 100 µM and a TGI [2] of over 100 µM. It also gave a TGI [59] of over 100 µM, a TGI [3] of over 100 µM and a TGI [4] of over 100 µM. The TGI [6] was over 100 µM, the TGI [7] was over 100 µM and the TGI [8] was over 100 µM. It also gave a TGI [10] of over 100 µM, a TGI [11] of over 100 µM and a TGI [12] of over 100 µM. The TGI [13] was over 100 µM, the TGI [60] was over 100 µM and the TGI [14] was over 100 µM. For the same molecule, the TGI [61] was over 100 µM, the TGI [17] was over 100 µM and the TGI [18] was over 100 µM. It also gave a TGI [19] of over 100 µM, a TGI [20] of over 100 µM and a TGI [21] of over 100 µM. It also gave a TGI [22] of over 100 µM, a TGI [23] of over 100 µM and a TGI [51] of over 100 µM. It also gave a TGI [24] of over 100 µM, a TGI [25] of over 100 µM and a TGI [26] of over 100 µM. The TGI [62] was over 100 µM, the TGI [27] was over 100 µM and the TGI [63] was over 100 µM. It also gave a TGI [28] of over 100 µM, a TGI [64] of over 100 µM and a TGI [52] of over 100 µM. For the same molecule, the TGI [29] was over 100 µM, the TGI [30] was over 100 µM and the TGI [32] was over 100 µM. The TGI [33] was over 100 µM, the TGI [65] was over 100 µM and the TGI [34] was over 100 µM. The TGI [35] was over 100 µM, the TGI [36] was over 100 µM and the TGI [55] was over 100 µM. The TGI [66] was over 100 µM, the TGI [37] was over 100 µM and the TGI [38] was over 100 µM. It also gave a TGI [39] of over 100 µM, a TGI [40] of over 100 µM and a TGI [67] of over 100 µM. It also gave a TGI [56] of over 100 µM, a TGI [41] of over 100 µM and a TGI [42] of over 100 µM. For the same molecule, the TGI [43] was over 100 µM, the TGI [44] was over 100 µM and the TGI [45] was over 100 µM. For the same molecule, the TGI [46] was over 100 µM, the TGI [47] was over 100 µM and the TGI [68] was over 100 µM. The TGI [48] was over 100 µM.

Work on COc1cc2c(c(OC)c1OC)-c1ccc(SC)c(=O)cc1C(CC(=O)Oc1cccc(C#N)c1)C2 (stereo unspecified) yielded a TGI [49] of over 77.7 µM, a TGI [1] of over 100 µM and a TGI [2] of over 100 µM. It also gave a TGI [3] of 19.7 µM, a TGI [4] of over 100 µM and a TGI [6] of 56.3 µM. It also gave a TGI [7] of 1.59 µM, a TGI [8] of 0.794 µM and a TGI [9] of over 100 µM. The TGI [10] was 6.88 µM, the TGI [11] was 2.35 µM and the TGI [13] was over 100 µM. For the same molecule, the TGI [14] was over 100 µM, the TGI [15] was 0.443 µM and the TGI [16] was 5.32 µM. It also gave a TGI [50] of over 100 µM, a TGI [17] of 5.66 µM and a TGI [18] of over 88.8 µM. The TGI [19] was 3.41 µM, the TGI [21] was over 100 µM and the TGI [22] was over 100 µM. It also gave a TGI [23] of over 34.6 µM, a TGI [51] of over 100 µM and a TGI [24] of over 100 µM. For the same molecule, the TGI [25] was over 100 µM, the TGI [26] was over 100 µM and the TGI [27] was over 100 µM. It also gave a TGI [63] of over 100 µM, a TGI [28] of over 100 µM and a TGI [52] of 0.522 µM. The TGI [29] was over 100 µM, the TGI [31] was over 100 µM and the TGI [32] was over 100 µM. The TGI [33] was 0.796 µM, the TGI [34] was 1.02 µM and the TGI [53] was 2.23 µM. It also gave a TGI [35] of over 100 µM, a TGI [36] of over 100 µM and a TGI [54] of over 100 µM. The TGI [55] was over 33.2 µM, the TGI [38] was 21.9 µM and the TGI [39] was 5.33 µM. It also gave a TGI [40] of over 100 µM, a TGI [42] of 6.47 µM and a TGI [57] of over 100 µM. The TGI [43] was 40.8 µM, the TGI [44] was over 100 µM and the TGI [45] was 4.83 µM. The TGI [47] was 0.602 µM and the TGI [48] was over 100 µM.

Reference: PubChem BioAssay (NCI)
